Drawing on patent publication US11446287B2, “Compounds and methods for EP300 or CBP modulation and indications therefor” (Opna Immuno-Oncology SA, priority 2019, dated 2022), this text covers IC50 for 28 molecules.

What is called IC50 is the concentration that gives 50% inhibition.

In this experiment the target is T1, Recombinant human BRD4 containing dual bromodomains (BRD4-BD12 (1-477)) (Homo sapiens, UniProt O60885).
T1 construct: Recombinant human BRD4 containing dual bromodomains (BRD4-BD12 (1-477)); made in house; host or cells: E. coli BL21-CodonPlus (DE3), modified pET vector
The experiment in a line: BRD4 Alphascreen binding assay. An outline of the steps: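 AlphaScreen proximity between Ni-chelate-bound BRD4-BD12 (1-477) and streptavidin-captured H4 K5/K8/K12/K16-acetyl peptide measured after 1 h room-temperature compound incubation and 30 min with 7.5 μg/ml beads. Buffer: 50 mM HEPES pH 7.5, 50 mM NaCl, 0.01% BSA, 0.01% Triton X-100; data plate-normalized and four-parameter fit for IC50.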
(In general: Alpha assays give light when donor and acceptor beads are brought close together.)
In the case of `Cc1noc(C)c1-c1cnc2c(c1)c(-c1ccc(C(=O)O)cc1OC(F)(F)F)cn2-c1ncccc1C#N` [P-0215, 4-(1-(3-cyanopyridin-2-yl)-5-(3,5-dimethylisoxazol-4-yl)-1H-pyrrolo[2,3-b]pyridin-3-yl)-3-(trifluoromethoxy)benzoic acid], the concentration for half-maximal inhibition (IC50) was in the range of 1 to 8 µM.

In the case of `Cc1noc(C)c1-c1cnc2c(c1)c(-c1ccc(C(=O)O)cc1OC(F)(F)F)cn2-c1ncccc1C#CC1CC1` [P-0216, 4-(1-(3-(cyclopropylethynyl)pyridin-2-yl)-5-(3,5-dimethylisoxazol-4-yl)-1H-pyrrolo[2,3-b]pyridin-3-yl)-3-(trifluoromethoxy)benzoic acid], the 50% inhibitory concentration (IC50) was in the range of 8 to 1000 µM.

Regarding `CCOc1cc(C(=O)O)cc(OCC)c1-n1cc(-c2ccc(C#N)cc2F)c2ncc(-c3c(C)noc3C)cc21` [P-0217, 4-(3-(4-cyano-2-fluorophenyl)-6-(3,5-dimethylisoxazol-4-yl)-1H-pyrrolo[3,2-b]pyridin-1-yl)-3,5-diethoxybenzoic acid], the IC50 was in the range of 1 to 8 µM.

For the molecule `CCOc1cc(C(=O)O)cc(OCC)c1-n1cc(-c2ccc(C(=O)NC3CC3)cc2)c2ncc(-c3c(C)noc3C)cc21` [P-0218, 4-(3-(4-(cyclopropylcarbamoyl)phenyl)-6-(3,5-dimethylisoxazol-4-yl)-1H-pyrrolo[3,2-b]pyridin-1-yl)-3,5-diethoxybenzoic acid], the IC50 lay in the range of 1 to 8 µM.

Consider `COC(=O)c1cc(OC)c(-n2cc(-c3ccccc3)c3ncc(-c4c(C)noc4C)cc32)c(OC)c1` [P-0219, methyl 4-(6-(3,5-dimethylisoxazol-4-yl)-3-phenyl-1H-pyrrolo[3,2-b]pyridin-1-yl)-3,5-dimethoxybenzoate], for which the IC50 was in the range of 1 to 8 µM.

As to `COc1cc(C(=O)O)cc(OC)c1-n1cc(-c2ccccc2)c2ncc(-c3c(C)noc3C)cc21` [P-0220, 4-(6-(3,5-dimethylisoxazol-4-yl)-3-phenyl-1H-pyrrolo[3,2-b]pyridin-1-yl)-3,5-dimethoxybenzoic acid], the half-inhibitory concentration (IC50) fell in the range of 0.0001 to 1 µM.

Take `COc1cccc(OC)c1-n1cc(-c2ccccc2)c2ncc(-c3c(C)noc3C)cc21` [P-0221, 4-(1-(2,6-dimethoxyphenyl)-3-phenyl-1H-pyrrolo[3,2-b]pyridin-6-yl)-3,5-dimethylisoxazole]: the IC50 fell in the range of 8 to 1000 µM.

Regarding `CCOc1cc(C(=O)O)cc(OCC)c1-n1cc(-c2ccnc(F)c2)c2ncc(-c3c(C)noc3C)cc21` [P-0222, 4-(6-(3,5-dimethylisoxazol-4-yl)-3-(2-fluoropyridin-4-yl)-1H-pyrrolo[3,2-b]pyridin-1-yl)-3,5-diethoxybenzoic acid], the IC50 fell in the range of 1 to 8 µM.

On to `Cc1noc(C)c1-c1cnc2c(c1)c(-c1ccc(C(=O)O)cc1OC(F)(F)F)cn2-c1ccccc1F` [P-0223, 4-(5-(3,5-dimethylisoxazol-4-yl)-1-(2-fluorophenyl)-1H-pyrrolo[2,3-b]pyridin-3-yl)-3-(trifluoromethoxy)benzoic acid], for which the half-inhibitory concentration (IC50) is 1 to 8 µM.

For `CCOc1cccc(Cl)c1-n1cc(-c2ccccc2)c2ncc(-c3c(C)noc3C)cc21` [P-0224, 4-(1-(2-chloro-6-ethoxyphenyl)-3-phenyl-1H-pyrrolo[3,2-b]pyridin-6-yl)-3,5-dimethylisoxazole], the IC50 was 1 to 8 µM.

For `CCOc1ccc(C(=O)O)cc1-n1cc(-c2ccccc2)c2ncc(-c3c(C)noc3C)cc21` [P-0225, 3-(6-(3,5-dimethylisoxazol-4-yl)-3-phenyl-1H-pyrrolo[3,2-b]pyridin-1-yl)-4-ethoxybenzoic acid], the IC50 fell in the range of 1 to 8 µM.

For the molecule `Cc1noc(C)c1-c1cnc2c(c1)c(-c1ccc(C(=O)O)cc1OC(F)(F)F)cn2C1CCOCC1` [P-0226, 4-(5-(3,5-dimethylisoxazol-4-yl)-1-(tetrahydro-2H-pyran-4-yl)-1H-pyrrolo[2,3-b]pyridin-3-yl)-3-(trifluoromethoxy)benzoic acid], the half-maximal inhibitory concentration (IC50) was 1 to 8 µM.

As for `Cc1noc(C)c1-c1cnc2c(c1)c(-c1ccc(C(=O)O)cc1OC(F)(F)F)cn2C1CCC(F)(F)CC1` [P-0227, 4-(1-(4,4-difluorocyclohexyl)-5-(3,5-dimethylisoxazol-4-yl)-1H-pyrrolo[2,3-b]pyridin-3-yl)-3-(trifluoromethoxy)benzoic acid], the IC50 lay within 1 to 8 µM.

With `Cc1noc(C)c1-c1cnc2c(c1)c(-c1ccc(C(=O)O)cc1OC(F)(F)F)c(C)n2-c1ccccn1` [P-0228, 4-(5-(3,5-dimethylisoxazol-4-yl)-2-methyl-1-(pyridin-2-yl)-1H-pyrrolo[2,3-b]pyridin-3-yl)-3-(trifluoromethoxy)benzoic acid], the IC50 lay within 1 to 8 µM.

Consider `Cc1noc(C)c1-c1cnc2c(-c3ccc(F)cc3F)cn(-c3ccc(C(=O)O)cc3OC(F)(F)F)c2c1` [P-0229, 4-(3-(2,4-difluorophenyl)-6-(3,5-dimethylisoxazol-4-yl)-1H-pyrrolo[3,2-b]pyridin-1-yl)-3-(trifluoromethoxy)benzoic acid], for which the IC50 was 1 to 8 µM.

As for `Cc1noc(C)c1-c1cnc2c(c1)c(-c1c(F)cc(C(=O)O)cc1OC(F)(F)F)cn2C(C1CC1)C1CC1` [P-0230, 4-(1-(dicyclopropylmethyl)-5-(3,5-dimethylisoxazol-4-yl)-1H-pyrrolo[2,3-b]pyridin-3-yl)-3-fluoro-5-(trifluoromethoxy)benzoic acid], the half-inhibitory concentration (IC50) lay within 1 to 8 µM.

As to `Cc1ccccc1-n1cc(-c2ccc(C(=O)O)cc2OC(F)(F)F)c2cc(-c3c(C)noc3C)cnc21` [P-0231, 4-(5-(3,5-dimethylisoxazol-4-yl)-1-(o-tolyl)-1H-pyrrolo[2,3-b]pyridin-3-yl)-3-(trifluoromethoxy)benzoic acid], the half-inhibitory concentration (IC50) lay in the range of 8 to 1000 µM.

With `Cc1noc(C)c1-c1cnc2c(c1)c(-c1ccc(C(=O)O)cc1OC(F)(F)F)cn2-c1ccc(F)cc1F` [P-0232, 4-(1-(2,4-difluorophenyl)-5-(3,5-dimethylisoxazol-4-yl)-1H-pyrrolo[2,3-b]pyridin-3-yl)-3-(trifluoromethoxy)benzoic acid], the IC50 was 1 to 8 µM.

In the case of `Cc1noc(C)c1-c1cnc2c(c1)c(-c1ccc(C(=O)O)cc1OC(F)(F)F)cn2-c1cc(F)ccc1F` [P-0233, 4-(1-(2,5-difluorophenyl)-5-(3,5-dimethylisoxazol-4-yl)-1H-pyrrolo[2,3-b]pyridin-3-yl)-3-(trifluoromethoxy)benzoic acid], the 50% inhibitory concentration (IC50) fell in the range of 1 to 8 µM.

On to `Cc1noc(C)c1-c1cnc2c(-c3ccc(C(=O)O)cc3F)c(C(F)(F)F)n([C@@H](C)c3ccccn3)c2c1` [P-0234, (S)-4-(6-(3,5-dimethylisoxazol-4-yl)-1-(1-(pyridin-2-yl)ethyl)-2-(trifluoromethyl)-1H-pyrrolo[3,2-b]pyridin-3-yl)-3-fluorobenzoic acid], for which the 50% inhibitory concentration (IC50) was 1 to 8 µM.

For `Cc1cc(C(=O)O)ccc1-c1c(C(F)(F)F)n([C@@H](C)c2ccccn2)c2cc(-c3c(C)noc3C)cnc12` [P-0235, (S)-4-(6-(3,5-dimethylisoxazol-4-yl)-1-(1-(pyridin-2-yl)ethyl)-2-(trifluoromethyl)-1H-pyrrolo[3,2-b]pyridin-3-yl)-3-methylbenzoic acid], the IC50 lay in the range of 8 to 1000 µM.

As to `COc1cc(C(=O)O)ccc1-c1c(C(F)(F)F)n([C@@H](C)c2ccccn2)c2cc(-c3c(C)noc3C)cnc12` [P-0236, (S)-4-(6-(3,5-dimethylisoxazol-4-yl)-1-(1-(pyridin-2-yl)ethyl)-2-(trifluoromethyl)-1H-pyrrolo[3,2-b]pyridin-3-yl)-3-methoxybenzoic acid], the IC50 was in the range of 1 to 8 µM.

On to `Cc1noc(C)c1-c1cnc2c(-c3cn(C)nc3C3CC3)c(C(F)(F)F)n([C@@H](C)c3ccccn3)c2c1` [P-0237, (S)-4-(3-(3-cyclopropyl-1-methyl-1H-pyrazol-4-yl)-1-(1-(pyridin-2-yl)ethyl)-2-(trifluoromethyl)-1H-pyrrolo[3,2-b]pyridin-6-yl)-3,5-dimethylisoxazole], for which the IC50 is 1 to 8 µM.

As to `Cc1noc(C)c1-c1cnc2c(-c3cc(C(=O)O)ccc3F)c(C(F)(F)F)n([C@@H](C)c3ccccn3)c2c1` [P-0238, (S)-3-(6-(3,5-dimethylisoxazol-4-yl)-1-(1-(pyridin-2-yl)ethyl)-2-(trifluoromethyl)-1H-pyrrolo[3,2-b]pyridin-3-yl)-4-fluorobenzoic acid], the half-inhibitory concentration (IC50) lay in the range of 1 to 8 µM.

Regarding `COc1ccc(C(=O)O)cc1-c1c(C(F)(F)F)n([C@@H](C)c2ccccn2)c2cc(-c3c(C)noc3C)cnc12` [P-0239, (S)-3-(6-(3,5-dimethylisoxazol-4-yl)-1-(1-(pyridin-2-yl)ethyl)-2-(trifluoromethyl)-1H-pyrrolo[3,2-b]pyridin-3-yl)-4-methoxybenzoic acid], the half-maximal inhibitory concentration (IC50) lay within 8 to 1000 µM.

Take `Cc1noc(C)c1-c1cnc2c(-c3cc(F)cc(C(=O)O)c3)c(C(F)(F)F)n([C@@H](C)c3ccccn3)c2c1` [P-0240, (S)-3-(6-(3,5-dimethylisoxazol-4-yl)-1-(1-(pyridin-2-yl)ethyl)-2-(trifluoromethyl)-1H-pyrrolo[3,2-b]pyridin-3-yl)-5-fluorobenzoic acid]: the half-inhibitory concentration (IC50) lay within 8 to 1000 µM.

In the case of `Cc1noc(C)c1-c1cnc2c(-c3cc(Cl)cc(C(=O)O)c3)c(C(F)(F)F)n([C@@H](C)c3ccccn3)c2c1` [P-0241, (S)-3-chloro-5-(6-(3,5-dimethylisoxazol-4-yl)-1-(1-(pyridin-2-yl)ethyl)-2-(trifluoromethyl)-1H-pyrrolo[3,2-b]pyridin-3-yl)benzoic acid], the IC50 was 8 to 1000 µM.

Turning to `Cc1noc(C)c1-c1cnc2c(-c3ccc(C(=O)O)c(F)c3)c(C(F)(F)F)n([C@@H](C)c3ccccn3)c2c1` [P-0242, (S)-4-(6-(3,5-dimethylisoxazol-4-yl)-1-(1-(pyridin-2-yl)ethyl)-2-(trifluoromethyl)-1H-pyrrolo[3,2-b]pyridin-3-yl)-2-fluorobenzoic acid], the IC50 fell in the range of 8 to 1000 µM.
